These results are taken from patent publication US20260242390A1, “TOTAL SYNTHESES OF PORTIMINE A AND ANALOGUES THEREOF AS SMALL MOLECULE MODULATORS OF NMD3” (priority 2023, published 2026).

This data set concerns primary human PBMCs. Kind of data set: Toxicity to primary human PBMCs. The conditions noted are these: PBMCs 25k per well, 0.23 pM to 1 uM, 12 hr, compared to Jurkat. The class given is cell-based. How it is done: Structurally related negative control ePA and PB are non-toxic in all cell types in the current concentrate range. PBMCs (25k per well), Jurkat (10k per well). Compound concentration was increased from […] to 1 uM, 4× per gradient, PBMCs using primary B cell media from Wesley (heat deactivated), and Jurkat using normal RPMI media and incubated for 12 hr.
FIG. 3. Initial SAR studies: Assessing activity of PAL functionalized PTMA analogs. […] (A) PA and Ph-PA show less toxic to healthy PBMCs compared to Jurkat cells. […] (B) Immunoblot of caspase-3 in Jurkat and PBMCs with indicated conditions.
• 1) Portimine A and its functional analogs show stereo-selective acute toxicity in cancer cells (FIG. 1). […] (B) Structure of portimine related analogs: phenyl-portimine A (Ph-PA, 36) and epi-portimine A (ePA, 38). Structure of fully functionalized portimine A-based epimeric probe pair: portimine A-diazirine-alkyne (PA-DA, 35-2) and epi-portimine A-diazirine-alkyne (ePA-DA, 35-1). (C) Cell viability analysis of portimine A and analogs. Jurkat cells were treated with increasing concentrations of portimine A and analogs for 24 hours. All presented data as mean of biological replicated experiments (n=3). […] Jurkat cells were treated with portimine A or analogs for 12 hours at 10 nM. […] Structurally related negative control ePA and PB are non-toxic in all cell types in the current concentrate range. PBMCs (25k per well), Jurkat (10k per well). […] Cell cycle analysis in Jurkat cells (FIG. 2). Jurkat cells were treated with 10 nM of indicated compounds for 24 hours, and propodium iodide was used to identify different stages of cells by flow cytometry. […] (A) PA and Ph-PA show less toxic to healthy PBMCs compared to Jurkat cells. […] (B) Immunoblot of caspase-3 in Jurkat and PBMCs with indicated conditions. […] (A) Pharmacokinetic studies of mouse intraperitoneal (i.p.) and oral (p.o.) administration for portimine (n=3). […] Impact of PA [0.3 or 1 mg/kg intraperitoneally] on MC38 tumor growth in WT mice (n=6). (C) Kaplan-Myer survival curve of WT MC38 tumor-bearing mice (n=6) after treatment with PA as described in (D). Mice were euthanized when tumor area exceeded 2000 mm^3. Statistical analysis was performed using ANOVA analysis followed by multiple comparisons test, * p≤0.05. Treatment condition: Jurkat (60 M per condition); PA-DA/ePA-DA concentration: 0.5 uM, PA or ePA: 5 uM; Incubate with probe with or without competitors (PA, ePA) for 30 min; UV irradiated for 20 min. (0.5 uM PA-DA add a no-UV condition), Standard pulldown & biotin-enrichment and western blot analysis (Elute condition: 2× sample buffer+500 uM biotin, boil for 20 mins); Primary antibody NMD3 (ProteinTech, 1:150), Actin (BioRad, 1:10000). […] Chemical proteomic profiling with PA-DA in Jurkat cells (A, B, C, G) and HCC1806 cells (D, E, F, H) show NMD3 is the primary target candidate of portimine A. Volcano plot in panels A and D show protein competition in cells treated with active photoaffinity probe PA-DA (500 nM) and DMSO or the active competitor portimine A (PA, […]), dotted lines indicate threshold of fold change <4, p-value>0.05. […] (I, J) Confirmation of PA-DA engagement of NMD3 in Jurkat and HCC1806 cells. […] Treatment condition: Jurkat (5M per well). Portimine A concentration: 2 nM-1000 nM; In total treat cell for 12 hours. […] Protein degradation of p53, Mcl1, Bid, Bim, Noxa can be rescued by MG132 or Epoxomicin. (B) NMD3 mRNA increased after PA treatment, but not ePA control compound. […]

Entries after “also recorded” stand apart in the source; their conditions may differ.

As for `C=CC1=C[C@@H]2[C@@H]3O[C@]4(CC[C@H](O4)C(C)C[C@@H](O)C3=O)CC(O)C3=NCC[C@@]32CC1` (some centres unmarked) [PA, portimine A], the “toxicity to healthy / primary human PBMCs” value was “substantially less toxic”. Also, the “toxicity to healthy / primary human PBMCs” value (listed as Portimine A) is recorded as “non-toxic; also recorded: do not induce apoptosis or affect cell viability”.

For the compound `C=CC1=C[C@@H]2[C@@H]3OC4(CC[C@H](O4)C(C)C[C@@H](O)C3=O)CC(=O)C3=NCC[C@@]32CC1` (some centres unmarked) [PB, portimine B], the “toxicity to healthy / primary human PBMCs” value is on record as “non-toxic; also recorded: non-toxicity”.

As for `CC1C[C@@H](O)C(=O)[C@H]2O[C@]3(CC[C@@H]1O3)CC(O)C1=NCC[C@@]13CCC(c1ccccc1)=C[C@H]23` (some centres unmarked) [Ph-PA, phenyl-portimine A], the “toxicity to healthy / primary human PBMCs” value is given as “substantially less toxic”.

`C=CC1=C[C@@H]2[C@@H]3O[C@]4(CC[C@H](O4)C(C)C[C@@H](O)C3=O)C[C@@H](O)C3=NCC[C@@]32CC1` (stereo partly drawn) [ePA, epi-portimine A]: the “toxicity to healthy / primary human PBMCs” value is recorded as “non-toxic; also recorded: non-toxicity”.
